Results: patent US6218427A, “Chromene-3-carboxylate derivatives” (Shionogi & Co., Ltd., priority 1996, dated 2001)
pIC50: −log10 of the molar value.

Legend:
foam cells = conditions: American Journal of Pathology vol. 146, No.4, 819-826 (1995); cited from earlier work
[1] = molecular target: T1, endothelin B (ETB) receptor (Sus scrofa, UniProt P35463); assay: Measurement of affinity for endothelin B (ETB) receptor: inhibition of 125I-labeled endothelin-3 binding to COS-7 cells expressing pig ETB receptor; conditions: 125I-endothelin-3 25 pM, 37° C., 1 h
T1 construct: expressed in transfected cells; host or cells: COS-7
T1 sequence (P35463 27-443): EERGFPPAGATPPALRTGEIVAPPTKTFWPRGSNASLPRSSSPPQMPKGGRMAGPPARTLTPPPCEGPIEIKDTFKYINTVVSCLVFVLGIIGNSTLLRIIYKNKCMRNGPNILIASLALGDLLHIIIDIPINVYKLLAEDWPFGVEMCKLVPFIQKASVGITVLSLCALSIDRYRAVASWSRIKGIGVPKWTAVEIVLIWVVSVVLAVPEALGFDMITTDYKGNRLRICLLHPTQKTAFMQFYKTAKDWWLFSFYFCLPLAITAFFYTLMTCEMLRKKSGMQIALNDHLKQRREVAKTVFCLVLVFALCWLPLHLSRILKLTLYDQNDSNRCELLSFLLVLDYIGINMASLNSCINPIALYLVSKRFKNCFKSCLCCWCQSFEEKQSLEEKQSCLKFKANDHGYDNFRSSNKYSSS
Protocol: Experiment 2 Measurement of affinity for endothelin B (ETB) receptor
Affinities for the ETB receptor were measured from the potency for inhibiting ^125 I-labeled endothelin-3 binding to COS-7 cells expressing the pig endothelin ETB receptor. In brief, a plasmid vector to which the pig endothelin ETB receptor gene was inserted was transfected to COS-7 cells by the lipofectin method. After the cells were washed with buffer, 10^3 -10^4 cells were dispersed in HEPES buffered Hanks' solution (0.1 ml) containing 25 pM of 125I labeled endothelin-3 and various kinds of protease inhibitors and incubated in the presence or absence of the compound of the present invention at 37° C. for 1 h. After completion of the reaction, the radioactivity bound was trapped by a glass fiber filter and measured with a gamma counter. Specific binding was calculated by subtracting the non-specific binding measured in the presence of 10^-7 M non-radioactive endothelin-3 from the total binding.

[2] = Effect on peripheral circulatory insufficiency (tail blood flow after 3° C. immersion); type: in vivo, Wistar rats
Protocol: Experiment 4 Effect on peripheral circulatory insufficiency
Using Wistar rats, the peripheral circulatory insufficiency model was produced by immersing the rat tail tip (2-3 cm) in 1° C. water for 9 h, and experiments were performed at 3 weeks after above treatment. Tail blood flows in peripheral circulatory insufficiency rats were measured with laser-Doppler flowmetry with a tablet probe during immersing the whole tail in 3° C. water (30 min) The probe was held directly adjacent to the ventral surface of the tail, approximately 14 cm from the tip. To evaluate the effects of the compound of the present invention, peripheral circulatory insufficiency rats administered by the compound of the present invention (I-36, 30 mg/kg, po) at 2 h before 3° C. immersion.
In the normal Wistar rats, tail blood flow was transiently declined after 3° C. immersion, and gradually recovered up to about 70 % of basal level at 25 to 30 min after the immertion (normal rat). On the other hand, in the peripheral circulatory insufficiency rats, the tail blood flow measured immediately before administration of the compound of the present invention recovered to no more than 40% of basal level (peripheral circulatory insufficiency rat). […] Three days after administration of the compound of the present invention, when the circulatory effects of the compound was supposed to fully disappear, tail blood flows during 3° C. immersion were measured again. […] For statistic analysis, Dunnett's test was used.

macrophage foam cell = assay: Inhibition of macrophage foam cell formation in high-cholesterol-diet hamsters (aortic arch); type: in vivo, golden Syrian hamster; conditions: 6 weeks, 8 hamsters, p < 0.01 vs HCD group (HCD 25.7 ± 2.7)
Text: Experiment 3 Inhibition of macrophage foam cell formation
Male golden Syrian hamster of 12 weeks old, were used for the experiment. Hamsters were classified into a group wherein hamsters were fed with usual powder diet (OD group), a group wherein hamsters were fed with diet containing high cholesterol (2%) (HCD group) and a group wherein hamsters were fed with diet containing high cholesterol (2%) and the compound I-36 of the present invention (HCD +I-36 group) and animals in each group were fed for 6 weeks. The added amount of the compound 1-36 of the present invention was 0.01, 0.03 and 0.1% and they were equivalent to 6, 19, 66 mg/kg, respectively, calculated from food intake. Each group contains 8 hamsters.
After feeding for 6 weeks, hamsters were anesthetized with pentobarbital and subjected to thoracotomy to expose a heart. Arch of the aorta was removed after reperfusion with phosphate-buffered 10% formalin solution from the ventricle. The arch of the aorta was opened longitudinally and the number of foam cells in a microphotograph after staining with oil red O was counted with a colony counter to calculate the number per aortic arch area. The significant difference between the groups was examined by Dunnett's multiple comparison test.

[3] = molecular target: T2, endothelin A (ETA) receptor (Rattus norvegicus, UniProt P26684); assay: Measurement of affinity for endothelin A (ETA) receptor: inhibition of 125I-labeled endothelin-1 binding to A7r5 cells; conditions: 125I-endothelin-1 8.3 pM, A7r5 cells derived from rat aorta, 37° C., 1 h
T2 construct: smooth muscle A7r5 cells derived from rat aorta; endogenous in cells; host or cells: A7r5 (rat aorta smooth muscle cells)
T2 sequence (P26684 21-426): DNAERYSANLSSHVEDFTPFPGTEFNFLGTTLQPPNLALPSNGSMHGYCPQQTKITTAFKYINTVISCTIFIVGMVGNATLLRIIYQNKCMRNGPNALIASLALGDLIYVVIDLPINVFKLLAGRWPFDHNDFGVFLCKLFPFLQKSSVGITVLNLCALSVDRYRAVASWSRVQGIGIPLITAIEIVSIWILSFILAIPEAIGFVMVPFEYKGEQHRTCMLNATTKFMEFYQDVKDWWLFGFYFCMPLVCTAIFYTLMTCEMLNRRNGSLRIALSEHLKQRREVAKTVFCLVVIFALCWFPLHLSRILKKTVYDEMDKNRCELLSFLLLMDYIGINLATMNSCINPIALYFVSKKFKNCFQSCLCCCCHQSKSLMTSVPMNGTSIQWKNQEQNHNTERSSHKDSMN
Protocol: Experiment 1 Measurement of affinity for endothelin A (ETA) receptor
Affinities for the ETA receptor were measured from the potency for inhibition of binding of ^125 I-labeled endotheline-1 to smooth muscle A7r5 cells derived from rat aorta. In brief, the cells cultured in 48-well plates were washed with buffer, and incubated in 0.3 ml of Hepes buffered Hanks' solution containing labeled endothelin-1 (8.3 pM) and various kinds of protease inhibitors in the presence or absence of the compound of the present invention at 37° C. for 1 h. The incubation was terminated by rapid removal of the incubation medium and the cells were washed with a HEPES buffered Hanks' solution. The radioactivity of ^125 I-labeled endothelin-1 bound to the cells was determined with a gamma-counter. The specific binding was calculated by subtracting the non-specific binding which was determined in the presence of 10^-7 M non radioactive endothelin-1 from the total binding.

| Structure (SMILES) | number and size of foam cells (foam cells) | pIC50 [1] | skin blood flow (%), average from 20-25 min after cold exposure ([2]; insufficiency rat + I-36, 30 mg/kg, po, 2 h before 3° C. immersion, n = 4, p < 0.01 vs insufficiency rat control (37.20 ± 3.29)) [%] | recovery of the tail blood flow ([2]; insufficiency rat + I-36, 30 mg/kg, po, in words) | recovery of the blood flow after wash out ([2]; three days after administration of I-36, in words) | skin blood flow (%), average from 20-25 min after cold exposure ([2]; wash out: three days after administration of I-36, n = 4) [%] | Aortic foam cell numbers / mm^2 (Mean ± SE) (macrophage foam cell; HCD + 0.01% I-36 in diet (equivalent to 6 mg/kg)) | Aortic foam cell numbers / mm^2 (Mean ± SE) (macrophage foam cell; HCD + 0.03% I-36 in diet (equivalent to 19 mg/kg)) | Aortic foam cell numbers / mm^2 (Mean ± SE) (macrophage foam cell; HCD + 0.1% I-36 in diet (equivalent to 66 mg/kg)) | pIC50 [3] |
| --- | --- | --- | --- | --- | --- | --- | --- | --- | --- | --- |
| Cc1noc(NS(=O)(=O)c2cccc3c(N(C)C)cccc23)c1C [BMS-182874] | reduce the number and size of foam cells |  |  |  |  |  |  |  |  |  |
| COc1ccc(C2=C(C(=O)O)C(c3ccc4c(c3)OCO4)Oc3ccc(OC(C)C)cc32)cc1 (stereo not shown) [Compound I-36, 2-(Benz[1,3]dioxol-5-yl)-6-isopropoxy-4-(4-methoxy-phenyl)-2H-chromen-3-carboxylic acid] |  | 6.74 | 62.02 ± 1.23 | remarkable and significant | same as that before administration | 44.19 ± 5.83 | 10.1 ± 1.7 / mm^2 | 9.1 ± 0.8 / mm^2 | 8.8 ± 1.1 / mm^2 | 9.05 |
